Laboratory results taken from ChEMBL document CHEMBL1201862, “PubChem BioAssay data set” (2004).
The source made the active and inactive calls.

How the values were obtained:
[1] = target: T1, Rac GTPase-activating protein 1 (Homo sapiens, UniProt Q9H0H5); assay: blockers of MgcRacGAP-driven Rac1 GTP hydrolysis – biochemical, ADP Hunter fluorescence, primary and confirmatory, confirmation (AID 624330); type: functional
T1 sequence (Q9H0H5 whole entry): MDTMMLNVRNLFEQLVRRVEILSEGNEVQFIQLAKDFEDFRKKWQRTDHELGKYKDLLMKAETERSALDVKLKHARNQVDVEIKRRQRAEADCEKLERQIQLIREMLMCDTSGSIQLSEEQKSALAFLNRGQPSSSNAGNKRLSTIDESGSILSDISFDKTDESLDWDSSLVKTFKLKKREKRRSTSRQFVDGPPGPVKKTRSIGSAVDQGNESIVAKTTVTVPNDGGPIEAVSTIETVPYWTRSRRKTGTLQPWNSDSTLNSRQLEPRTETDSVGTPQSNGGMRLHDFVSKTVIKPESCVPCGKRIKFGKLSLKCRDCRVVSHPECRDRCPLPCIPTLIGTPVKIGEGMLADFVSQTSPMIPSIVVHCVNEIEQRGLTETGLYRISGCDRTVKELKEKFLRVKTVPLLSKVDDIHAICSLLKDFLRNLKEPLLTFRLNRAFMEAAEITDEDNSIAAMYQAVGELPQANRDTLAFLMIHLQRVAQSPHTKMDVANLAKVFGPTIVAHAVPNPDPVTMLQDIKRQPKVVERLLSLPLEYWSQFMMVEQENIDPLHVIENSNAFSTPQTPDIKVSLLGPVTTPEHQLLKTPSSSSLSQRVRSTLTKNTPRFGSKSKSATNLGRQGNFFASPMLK

Cytochrome P450 2C9 = Cytochrome P450 2C9 (Homo sapiens, UniProt P11712)
Chain of Cytochrome P450 2C9 (P11712 whole entry): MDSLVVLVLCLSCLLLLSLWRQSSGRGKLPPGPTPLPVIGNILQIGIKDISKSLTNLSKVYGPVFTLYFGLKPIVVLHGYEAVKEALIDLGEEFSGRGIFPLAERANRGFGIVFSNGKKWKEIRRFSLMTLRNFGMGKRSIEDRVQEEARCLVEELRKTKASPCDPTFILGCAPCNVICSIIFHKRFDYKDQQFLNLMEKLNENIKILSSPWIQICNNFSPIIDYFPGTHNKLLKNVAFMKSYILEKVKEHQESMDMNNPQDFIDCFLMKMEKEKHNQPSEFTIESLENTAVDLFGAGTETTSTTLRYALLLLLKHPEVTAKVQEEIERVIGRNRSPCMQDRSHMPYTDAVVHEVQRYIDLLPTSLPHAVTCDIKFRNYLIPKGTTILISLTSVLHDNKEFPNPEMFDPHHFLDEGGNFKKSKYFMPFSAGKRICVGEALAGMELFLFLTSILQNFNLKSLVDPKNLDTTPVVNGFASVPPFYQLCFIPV

Cytochrome P450 1A2 = target: T2, Cytochrome P450 1A2 (Homo sapiens, UniProt P05177);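 note: PubChem cytochrome P450 panel assay, CYP1A2 panel member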
T2 sequence (P05177 whole entry): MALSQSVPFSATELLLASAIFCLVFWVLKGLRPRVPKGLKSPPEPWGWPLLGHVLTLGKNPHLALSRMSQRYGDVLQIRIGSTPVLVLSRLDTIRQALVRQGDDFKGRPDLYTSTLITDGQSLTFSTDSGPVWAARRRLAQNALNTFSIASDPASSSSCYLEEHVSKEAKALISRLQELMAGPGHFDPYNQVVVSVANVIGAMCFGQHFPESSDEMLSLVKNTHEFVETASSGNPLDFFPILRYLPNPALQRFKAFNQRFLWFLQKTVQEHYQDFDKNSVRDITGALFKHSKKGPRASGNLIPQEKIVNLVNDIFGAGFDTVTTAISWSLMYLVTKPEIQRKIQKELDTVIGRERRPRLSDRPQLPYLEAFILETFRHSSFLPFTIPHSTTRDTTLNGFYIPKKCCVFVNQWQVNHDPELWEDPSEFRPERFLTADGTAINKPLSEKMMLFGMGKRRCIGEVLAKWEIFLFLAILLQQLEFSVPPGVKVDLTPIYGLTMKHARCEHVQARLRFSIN

[2] = target: T3, Heat shock factor protein 1 (Mus musculus, UniProt P38532); assay: enhancement of HSF1-driven luciferase signal – cell-based, NIH3T3, luminescence, dose retest, confirmation (AID 435004); type: functional;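 note: stress induced by proteasome inhibitor MG132 added 30 min after compound; luciferase reporter driven by HSF1 response element in NIH3T3 cells; actives raise luminescence as potentiators of the MG132 stress response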
T3 sequence (P38532 whole entry): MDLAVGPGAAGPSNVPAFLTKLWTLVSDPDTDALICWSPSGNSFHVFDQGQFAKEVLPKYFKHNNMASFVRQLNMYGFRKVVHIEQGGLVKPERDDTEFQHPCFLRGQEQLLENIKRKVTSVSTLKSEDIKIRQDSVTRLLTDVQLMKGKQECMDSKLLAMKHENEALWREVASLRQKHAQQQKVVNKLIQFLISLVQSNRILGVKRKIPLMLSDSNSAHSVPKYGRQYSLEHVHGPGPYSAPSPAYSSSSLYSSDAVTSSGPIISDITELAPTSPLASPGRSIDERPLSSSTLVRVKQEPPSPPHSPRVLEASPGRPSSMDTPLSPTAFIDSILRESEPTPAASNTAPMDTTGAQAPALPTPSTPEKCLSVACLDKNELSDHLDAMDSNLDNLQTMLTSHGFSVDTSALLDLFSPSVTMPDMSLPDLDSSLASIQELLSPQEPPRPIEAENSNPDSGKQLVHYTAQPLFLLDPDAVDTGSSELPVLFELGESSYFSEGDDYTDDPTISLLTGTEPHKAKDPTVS

[3] = luciferase reporter signal suppression in cells – H4 neuroglioma cells, luminescence, dose response (AID 1990); type: functional, cell-based
[4] = Luminescence Cell-Based Dose Response HTS to Identify Inhibitors of 5'UTR Stem-Loop Driven Prion Protein mRNA Translation in H4 Neuroglioblastoma Cells. [Related pubchem assays: 1827 (Project Summary), 1813 (Primary HTS)]; type: functional
[5] = alpha-synuclein stem-loop luciferase translation blockers – H4 neuroglioma cells, luminescence, confirmation (AID 1988); type: functional, cell-based
Cytochrome P450 2C19 = Cytochrome P450 2C19 (Homo sapiens, UniProt P33261); assay: Cytochrome panel assay with activity outcomes. Panel member name: p450-cyp2c19 Compounds with AC50 equal or less than 10 uM are considered active; type: functional
Chain of Cytochrome P450 2C19 (P33261 whole entry): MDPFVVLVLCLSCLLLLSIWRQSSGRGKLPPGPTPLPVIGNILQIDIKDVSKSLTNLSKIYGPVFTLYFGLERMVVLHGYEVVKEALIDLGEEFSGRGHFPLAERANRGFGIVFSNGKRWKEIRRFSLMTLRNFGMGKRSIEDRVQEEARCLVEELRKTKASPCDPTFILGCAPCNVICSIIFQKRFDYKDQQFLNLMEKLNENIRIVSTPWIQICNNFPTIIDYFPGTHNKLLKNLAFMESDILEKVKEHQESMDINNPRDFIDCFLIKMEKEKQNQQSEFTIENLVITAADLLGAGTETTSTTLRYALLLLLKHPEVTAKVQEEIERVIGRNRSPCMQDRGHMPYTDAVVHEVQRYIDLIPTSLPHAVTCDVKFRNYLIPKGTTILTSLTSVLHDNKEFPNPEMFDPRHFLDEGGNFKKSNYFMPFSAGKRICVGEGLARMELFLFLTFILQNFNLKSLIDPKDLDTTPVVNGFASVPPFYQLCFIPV

[6] = tested on: Streptococcus sp. 'group A'; assay: Streptococcus pyogenes SK(-)GAS viability under kanamycin – luminescence, BacTiterGlo, confirmation, counter-screen for streptokinase expression inhibitor project, dose response (AID 1900); type: functional, organism-based
Streptokinase A = target: T4, Streptokinase A (Streptococcus pyogenes serotype M1, UniProt P10520); assay: viability-normalized secreted streptokinase activity reduction – plasminogen activation absorbance, OD405, dose response (AID 1914); type: functional, Streptococcus pyogenes M1 GAS;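 note: secreted streptokinase activity via plasminogen activation per viability signal from cell pellet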
T4 sequence (P10520 whole entry): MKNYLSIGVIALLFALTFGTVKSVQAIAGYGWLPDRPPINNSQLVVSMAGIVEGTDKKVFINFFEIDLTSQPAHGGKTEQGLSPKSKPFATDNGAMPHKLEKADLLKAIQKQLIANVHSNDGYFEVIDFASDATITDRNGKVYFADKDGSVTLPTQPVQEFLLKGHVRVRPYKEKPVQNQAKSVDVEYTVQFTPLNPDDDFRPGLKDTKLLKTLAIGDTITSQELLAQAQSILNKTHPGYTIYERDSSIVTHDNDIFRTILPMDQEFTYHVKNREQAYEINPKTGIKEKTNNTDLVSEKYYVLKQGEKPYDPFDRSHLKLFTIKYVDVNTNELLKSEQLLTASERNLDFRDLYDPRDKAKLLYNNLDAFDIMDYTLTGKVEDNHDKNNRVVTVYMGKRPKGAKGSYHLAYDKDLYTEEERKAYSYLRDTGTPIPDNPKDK

Streptococcus = assay: GAS UMAA2166 growth inhibition – luminescence, BacTiterGlo, counter-screen for streptokinase expression inhibitor project, dose response (AID 1915); type: functional, organism-based;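 note: potency for reduction of bacterial viability or growth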
H4 = assay: Luminescence Cell-Based Dose Response HTS to Identify Activators of 5'UTR Stem-Loop Driven Prion Protein mRNA Translation in H4 Neuroglioblastoma Cells. [Related pubchem assays: 1829 (Project Summary), 1814 (Primary HTS)]; type: functional; settings: Homo sapiens

CCCCN(C)CCNC(=O)CSCc1ccc(C)cc1
IC50 [1]: 220 µM (active)

CN(C)c1ccc(-c2cc(-n3ccnc3)ncn2)cc1
AC50 (Cytochrome P450 2C9): 0.794 µM (inconclusive)

CN(Cc1ccccc1)C(=O)CC(c1ccccc1)c1cc(Cl)ccc1O (stereo unspecified)
AC50 (Cytochrome P450 1A2): 25.1 µM (inconclusive)

C=CCOc1ccc(-c2nc3c(c(=O)[nH]c(=O)n3Cc3ccccc3)n2CCCOC)cc1
EC50 [2]: > 260 µM (inactive)

CO[C@@H]1/C=C\O[C@]2(C)Oc3c(C)c(O)c4c(O)c(c(CN5CCN(C)CC5)c(O)c4c3C2=O)NC(=O)/C(C)=C\C=C[C@@H](C)[C@@H](O)[C@H](C)[C@@H](O)[C@H](C)[C@H](OC(C)=O)[C@@H]1C
AC50 (Cytochrome P450 2C9): 6.31 µM (inconclusive)

COc1cccc(CN2CCN(Cc3cccc(F)c3)CC2)c1
IC50 [1]: 86 µM (active)

N#CCCN1CCN(C(=S)c2ccc(-c3ccc(Cl)c(Cl)c3)o2)CC1
EC50 [2]: 3.72 µM (active)

CCOC(=O)c1oc2cc(OC(C)=O)ccc2c(=O)c1-c1ccc(OC)c(OC)c1
EC50 [3]: > 120 µM (not active)
EC50 [4]: > 120 µM (not active)
EC50 [5]: > 120 µM (not active)

O=C(Nc1cccc(OC(=O)c2cccnc2)c1)c1cccnc1
AC50 (Cytochrome P450 2C9): 28.2 µM (inconclusive)

Oc1nc(N2CCCCCC2)nc(N2CCCCCC2)n1
AC50 (Cytochrome P450 2C19; read-out: AC50): 5.62 µM (inconclusive)
AC50 (Cytochrome P450 1A2): 22.4 µM (inconclusive)

CSc1nncc(-c2ccc(F)c(F)c2)n1
AC50 (Cytochrome P450 2C9): 28.2 µM (inconclusive)

CCc1ccc(/C=C2/C(=O)N(c3ccccc3)C(=S)N2CC(=O)OC)s1
EC50 [3]: > 120 µM (not active)
EC50 [4]: 11.2 µM (active)
EC50 [5]: 14.4 µM (active)

O=C(COc1ccccc1)Nc1ccc(-c2nnc(-c3ccco3)o2)cc1
AC50 (Cytochrome P450 2C19; read-out: AC50): 10 µM (inconclusive)
AC50 (Cytochrome P450 2C9): 1.78 µM (inconclusive)

O=C(Nc1ccccc1)c1cc([N+](=O)[O-])ccc1NC1CCCCC1
EC50 [3]: 16.4 µM (active)
EC50 [4]: > 120 µM (not active)
EC50 [5]: > 120 µM (not active)

NS(=O)(=O)c1nc(S(=O)(=O)O)c2[nH]cnc2n1
AC50 (Cytochrome P450 2C19): inconclusive
AC50 (Cytochrome P450 1A2): 5.01 µM (inconclusive)

CC(C)CN(Cc1cc(=O)oc2cc(-c3ccccc3)c(O)cc12)CC(C)C
EC50 [3]: 12.1 µM (active)
EC50 [6]: 5.29 µM (active)
EC50 [4]: > 120 µM (not active)
EC50 [5]: > 120 µM (not active)
EC50 (Streptokinase A): 2.43 µM (active)
EC50 (Streptococcus): 14.3 µM (active)

CCC/C=C(\CCC)C(NP(=O)(c1ccccc1)c1ccccc1)c1ccc(-c2ccccc2)cc1 (stereo unspecified)
AC50 (Cytochrome P450 1A2): 2.51 µM (inconclusive)

COc1ccccc1/C=C(/C(=O)OCC(=O)Nc1ccc(N(C)C)cc1)c1ccccc1
IC50 [1]: 61 µM (active)

COc1cc(OC)cc(C(=O)NC(=S)Nc2ccc(Cl)c(C(=O)O)c2)c1
AC50 (Cytochrome P450 2C9): 12.6 µM (inconclusive)

CN(C)S(=O)(=O)c1ccc(Cl)c(NC(=O)COC(=O)CN2C(=O)C3CCCCC3C2=O)c1 (stereo unspecified)
EC50 [3]: > 120 µM (not active)
EC50 [4]: > 120 µM (not active)
EC50 [5]: > 120 µM (not active)

COc1ccc(C2CC(c3ccc4ccccc4c3)=NN2C(=O)COC(=O)C2CCC(=O)N2)cc1 (stereo unspecified)
EC50 (H4): 66.5 µM (active)

Fc1ccccc1Nc1nnc(S)s1
IC50 [1]: 54.3 µM (active)

ClC1(Cl)CC1Cn1c(C2CC2)nc2ccccc21 (stereo unspecified)
EC50 [3]: > 120 µM (not active)
EC50 [4]: > 120 µM (not active)
EC50 [5]: > 120 µM (not active)

COc1ccccc1N1CCN(Cc2cccc(Br)c2)CC1
IC50 [1]: 130 µM (active)

COc1ccc(/C=C(/C(=O)Nc2ccccc2C(=O)NC(C)C)c2ccccc2)cc1
EC50 [3]: 13.7 µM (active)
EC50 [4]: 83.5 µM (active)
EC50 [5]: 30.2 µM (active)

COc1ccc(NC2CCCN(C(=O)c3ccccc3C(F)(F)F)C2)cc1 (stereo unspecified)
IC50 [1]: 75.2 µM (active)

CCOC(=O)c1c(C)[nH]c(C)c1C(=O)CSc1nc2ccccc2c(=O)n1-c1ccc(C)cc1
EC50 [3]: 13.4 µM (active)
EC50 [4]: > 120 µM (not active)
EC50 [5]: > 120 µM (not active)

CCN=C(S)Nc1cc(Cl)ccc1Oc1ccccc1
EC50 [3]: > 120 µM (not active)
EC50 [4]: > 120 µM (not active)
EC50 [5]: > 120 µM (not active)

CC(=O)NN1C(=O)/C(=C\c2ccc(O)cc2)SC1=S
IC50 [1]: 121 µM (active)

COc1ccc(C(=O)N/C(=C/c2cccs2)C(=O)NCCCn2ccnc2)cc1OC
AC50 (Cytochrome P450 2C19; read-out: AC50): 8.91 µM (inconclusive)
AC50 (Cytochrome P450 2C9): 5.01 µM (inconclusive)

COc1cc(N=Nc2ccc(C(=O)N(C)C)cc2)c(C)cc1N
IC50 [1]: 52.9 µM (active)

COc1ccc(C(=O)/C=C/c2ccc(O)cc2)c2c1CC(O)C(C)(C)O2 (stereo unspecified)
IC50 [1]: 56.9 µM (active)

CC1(C)CC(=O)C(/C=N/c2cccnc2)=C(O)C1
EC50 [2]: 16.6 µM (active)

COc1ccc(N2CCN(C(=O)c3ccc(C[S+]([O-])c4cccc(Cl)c4)o3)CC2)cc1 (stereo unspecified)
IC50 [1]: 326 µM (active)

Cc1cc(O)c(C)c(O)c1/C=N/NC(=O)c1cccnc1
IC50 [1]: 101 µM (active)

COc1cc(/C(C)=N/NC(=O)C(O)(c2ccccc2)c2ccccc2)ccc1O
IC50 [1]: 104 µM (active)
